In ChEMBL document CHEMBL3774389, “C-3 benzoic acid derivatives of C-3 deoxybetulinic acid and deoxybetulin as HIV-1 maturation inhibitors” (Bioorg Med Chem, 2016):

What was measured:
[1] = system: Human immunodeficiency virus 1; assay: Antiviral activity against wild type HIV1 NLRepRlucP373S infected in human MT2 cells after 4 to 5 days by luciferase report gene based multiple cycle drug susceptibility assay; assay type: functional, organism-based; details: Human immunodeficiency virus 1, NLRepRlucP373S
[2] = Cytotoxicity against human MT2 cells assessed as cell viability by redox dye assay; assay type: cell-based
[3] = system: Human immunodeficiency virus 1; assay: Antiviral activity against HIV1 containing gag V370A mutant infected in human MT2 cells after 4 to 5 days by luciferase report gene based multiple cycle drug susceptibility assay; assay type: functional, organism-based; details: Human immunodeficiency virus 1, MT2
[4] = system: Human immunodeficiency virus 1; assay: Ratio of EC50 for HIV1 NLRepRlucP373S infected in human MT2 cells in presence of HSA to EC50 for HIV1 NLRepRlucP373S infected in human MT2 cells in absence of HSA; assay type: functional
[5] = system: Human immunodeficiency virus 1; assay: Antiviral activity against wild type HIV1 NLRepRlucP373S infected in human MT2 cells after 4 to 5 days in presence of 15 mg/ml HSA by luciferase report gene based multiple cycle drug susceptibility assay; assay type: functional, organism-based; details: Human immunodeficiency virus 1, NLRepRlucP373S

SMILES	EC50 [1] [nM]	CC50 [2] [nM]	EC50 [3] [nM]	Ratio EC50 [4]	EC50 [5] [nM]
C=C(C)[C@@H]1CC[C@]2(C(=O)O)CC[C@]3(C)[C@H](CC[C@@H]4[C@@]5(C)CC=C(c6cccc(-c7nn[nH]n7)c6)C(C)(C)[C@@H]5CC[C@]43C)[C@@H]12	> 8000	10500	–	–	–
C=C(C)[C@@H]1CC[C@]2(CO)CC[C@]3(C)[C@H](CC[C@@H]4[C@@]5(C)CC=C(c6ccc(-c7nn[nH]n7)cc6)C(C)(C)[C@@H]5CC[C@]43C)[C@@H]12	3400	34300	> 4000	–	–
C=C(C)[C@@H]1CC[C@]2(C(=O)O)CC[C@]3(C)[C@H](CC[C@@H]4[C@@]5(C)CC=C(c6ccc(C(=O)O)c(Cl)c6)C(C)(C)[C@@H]5CC[C@]43C)[C@@H]12	21	3080	589	15	331
C=C(C)[C@@H]1CC[C@]2(C(=O)O)CC[C@]3(C)[C@H](CC[C@@H]4[C@@]5(C)CC=C(c6cccc(C(=O)O)c6)C(C)(C)[C@@H]5CC[C@]43C)[C@@H]12	> 8000	13800	–	–	–
C=C(C)[C@@H]1CC[C@]2(C(=O)O)CC[C@]3(C)[C@H](CC[C@@H]4[C@@]5(C)CC=C(c6ccc(C(=O)O)c(F)c6)C(C)(C)[C@@H]5CC[C@]43C)[C@@H]12	18	10100	36	3.7	67
C=C(C)[C@@H]1CC[C@]2(CO)CC[C@]3(C)[C@H](CC[C@@H]4[C@@]5(C)CC=C(c6ccc(C(=O)O)c(Cl)c6)C(C)(C)[C@@H]5CC[C@]43C)[C@@H]12	24	1970	262	3.9	94
C=C(C)[C@@H]1CC[C@]2(CO)CC[C@]3(C)[C@H](CC[C@@H]4[C@@]5(C)CC=C(c6ccc(C(=O)O)c(F)c6)C(C)(C)[C@@H]5CC[C@]43C)[C@@H]12	46	18800	309	4	185
C=C(C)[C@@H]1CC[C@]2(CO)CC[C@]3(C)[C@H](CC[C@@H]4[C@@]5(C)CC=C(c6ccc(C(=O)O)cc6F)C(C)(C)[C@@H]5CC[C@]43C)[C@@H]12	55	16500	1400	1	50
C=C(C)[C@@H]1CC[C@]2(C(=O)O)CC[C@]3(C)[C@H](CC[C@@H]4[C@@]5(C)CC=C(c6ccc(O)cc6)C(C)(C)[C@@H]5CC[C@]43C)[C@@H]12	308	13400	–	–	> 8000
C=C(C)[C@@H]1CC[C@]2(C(=O)O)CC[C@]3(C)[C@H](CC[C@@H]4[C@@]5(C)CC=C(c6ccc(S(C)(=O)=O)cc6)C(C)(C)[C@@H]5CC[C@]43C)[C@@H]12	2520	9720	–	–	–
C=C(C)[C@@H]1CC[C@]2(CO)CC[C@]3(C)[C@H](CC[C@@H]4[C@@]5(C)CC=C(c6cnc(C(=O)O)nc6)C(C)(C)[C@@H]5CC[C@]43C)[C@@H]12	1080	22300	> 4000	1	1080
C=C(C)[C@@H]1CC[C@]2(C(=O)O)CC[C@]3(C)[C@H](CC[C@@H]4[C@@]5(C)CC=C(c6ccc(/C=C/C(=O)O)cc6)C(C)(C)[C@@H]5CC[C@]43C)[C@@H]12	734	> 8000	–	–	–
C=C(C)[C@@H]1CC[C@]2(C(=O)O)CC[C@]3(C)[C@H](CC[C@@H]4[C@@]5(C)CC=C(c6ccc(C(=O)NS(=O)(=O)C(C)C)cc6)C(C)(C)[C@@H]5CC[C@]43C)[C@@H]12	124	8680	937	2.2	275
C=C(C)[C@@H]1CC[C@]2(CO)CC[C@]3(C)[C@H](CC[C@@H]4[C@@]5(C)CC=C(c6ccc(NS(C)(=O)=O)cc6)C(C)(C)[C@@H]5CC[C@]43C)[C@@H]12	> 1600	8820	> 1600	–	> 1600
C=C(C)[C@@H]1CC[C@]2(C(=O)O)CC[C@]3(C)[C@H](CC[C@@H]4[C@@]5(C)CC=C(c6ccc(-c7cnc8ccccc8c7C(=O)O)cc6)C(C)(C)[C@@H]5CC[C@]43C)[C@@H]12	3600	15900	–	–	–
C=C(C)[C@@H]1CC[C@]2(C(=O)O)CC[C@]3(C)[C@H](CC[C@@H]4[C@@]5(C)CC=C(c6ccn(CC(=O)O)n6)C(C)(C)[C@@H]5CC[C@]43C)[C@@H]12	167	> 30000	> 3000	–	–
C=C(C)[C@@H]1CC[C@]2(CO)CC[C@]3(C)[C@H](CC[C@@H]4[C@@]5(C)CC=C(c6cc(C(=O)O)no6)C(C)(C)[C@@H]5CC[C@]43C)[C@@H]12	39	12100	> 2000	7.5	295

SMILES	EC50 [1] [nM]	CC50 [2] [nM]	EC50 [3] [nM]	Ratio EC50 [4]	EC50 [5] [nM]
C=C(C)[C@@H]1CC[C@]2(C(=O)O)CC[C@]3(C)[C@H](CC[C@@H]4[C@@]5(C)CC=C(c6ccc(C(=O)NC)cc6)C(C)(C)[C@@H]5CC[C@]43C)[C@@H]12	1600	22600	–	–	–
C=C(C)[C@@H]1CC[C@]2(CO)CC[C@]3(C)[C@H](CC[C@@H]4[C@@]5(C)CC=C(c6cc(C(=O)O)[nH]n6)C(C)(C)[C@@H]5CC[C@]43C)[C@@H]12	61	570	348	–	–
C=C(C)[C@@H]1CC[C@]2(CO)CC[C@]3(C)[C@H](CC[C@@H]4[C@@]5(C)CC=C(c6ccc(C(=O)O)c(OC)c6)C(C)(C)[C@@H]5CC[C@]43C)[C@@H]12	513	28700	> 4000	2.3	1190
C=C(C)[C@@H]1CC[C@]2(C(=O)O)CC[C@]3(C)[C@H](CC[C@@H]4[C@@]5(C)CC=C(c6ccc(C(=O)O)s6)C(C)(C)[C@@H]5CC[C@]43C)[C@@H]12	59	790	> 2000	–	–
C=C(C)[C@@H]1CC[C@]2(CO)CC[C@]3(C)[C@H](CC[C@@H]4[C@@]5(C)CC=C(c6ccc([N+](=O)[O-])cc6)C(C)(C)[C@@H]5CC[C@]43C)[C@@H]12	> 4000	20000	> 4000	–	> 4000
C=C(C)[C@@H]1CC[C@]2(C(=O)O)CC[C@]3(C)[C@H](CC[C@@H]4[C@@]5(C)CC=C(c6ccc(C7(C(=O)O)CC7)cc6)C(C)(C)[C@@H]5CC[C@]43C)[C@@H]12	215	> 8000	633	–	–
C=C(C)[C@@H]1CC[C@]2(C(=O)O)CC[C@]3(C)[C@H](CC[C@@H]4[C@@]5(C)CC=C(c6ccc(C#N)cc6)C(C)(C)[C@@H]5CC[C@]43C)[C@@H]12	> 1600	4450	–	–	–
C=C(C)[C@@H]1CC[C@]2(C(=O)O)CC[C@]3(C)[C@H](CC[C@@H]4[C@@]5(C)CC[C@H](OC(=O)CC(C)(C)CC(=O)O)C(C)(C)[C@@H]5CC[C@]43C)[C@@H]12	4	4250	–	227	909
C=C(C)[C@@H]1CC[C@]2(C(=O)O)CC[C@]3(C)[C@H](CC[C@@H]4[C@@]5(C)CC=C(c6ccccc6CCC(=O)O)C(C)(C)[C@@H]5CC[C@]43C)[C@@H]12	3200	5030	–	–	–
C=C(C)[C@@H]1CC[C@]2(CO)CC[C@]3(C)[C@H](CC[C@@H]4[C@@]5(C)CC=C(c6ccc(C(=O)O)c(C(=O)O)c6)C(C)(C)[C@@H]5CC[C@]43C)[C@@H]12	38	> 20000	212	–	–
C=C(C)[C@@H]1CC[C@]2(C(=O)O)CC[C@]3(C)[C@H](CC[C@@H]4[C@@]5(C)CC=C(c6cccc(S(=O)(=O)NC)c6)C(C)(C)[C@@H]5CC[C@]43C)[C@@H]12	1230	13000	–	–	–
C=C(C)[C@@H]1CC[C@]2(C(=O)O)CC[C@]3(C)[C@H](CC[C@@H]4[C@@]5(C)CC=C(c6cccc(CCC(=O)O)c6)C(C)(C)[C@@H]5CC[C@]43C)[C@@H]12	571	1830	–	–	–
C=C(C)[C@@H]1CC[C@]2(C(=O)O)CC[C@]3(C)[C@H](CC[C@@H]4[C@@]5(C)CC=C(c6cccc(NS(C)(=O)=O)c6)C(C)(C)[C@@H]5CC[C@]43C)[C@@H]12	2130	12700	–	–	–
C=C(C)[C@@H]1CC[C@]2(CO)CC[C@]3(C)[C@H](CC[C@@H]4[C@@]5(C)CC=C(c6ccc(C(=O)O)cn6)C(C)(C)[C@@H]5CC[C@]43C)[C@@H]12	503	4300	> 2000	–	–
C=C(C)[C@@H]1CC[C@]2(C(=O)O)CC[C@]3(C)[C@H](CC[C@@H]4[C@@]5(C)CC=C(c6ccc(CCC(=O)O)cc6)C(C)(C)[C@@H]5CC[C@]43C)[C@@H]12	682	6550	–	–	–
C=C(C)[C@@H]1CC[C@]2(CO)CC[C@]3(C)[C@H](CC[C@@H]4[C@@]5(C)CC=C(c6csc(C(=O)O)c6)C(C)(C)[C@@H]5CC[C@]43C)[C@@H]12	380	14100	> 2000	–	–
C=C(C)[C@@H]1CC[C@]2(C(=O)O)CC[C@]3(C)[C@H](CC[C@@H]4[C@@]5(C)CC=C(c6ccc(NC(=O)CCC(=O)O)cc6)C(C)(C)[C@@H]5CC[C@]43C)[C@@H]12	1470	7730	1570	–	–
